{
  "source": "paper PMC11198769",
  "about": "“Enhancement of transcription efficiency by TAR-Tat system increases the functional expression of human olfactory receptors” (PLOS ONE, 2024)",
  "assay_in_all_cases": "hOR assay (GloSensor cAMP luciferase), dose-response",
  "assay_type_in_all_cases": "cell-based",
  "key": {"[1]": {"molecular_target": "T1, OR10A2 (Homo sapiens, UniProt Q9H208)", "T1 construct": "Lucy tag (N); expressed in transfected cells; host or cells: Flp-In T-REx-293 cells stably expressing RTP1S, Gαolf and Ric8-b", "T1 sequence (Q9H208 1-303)": "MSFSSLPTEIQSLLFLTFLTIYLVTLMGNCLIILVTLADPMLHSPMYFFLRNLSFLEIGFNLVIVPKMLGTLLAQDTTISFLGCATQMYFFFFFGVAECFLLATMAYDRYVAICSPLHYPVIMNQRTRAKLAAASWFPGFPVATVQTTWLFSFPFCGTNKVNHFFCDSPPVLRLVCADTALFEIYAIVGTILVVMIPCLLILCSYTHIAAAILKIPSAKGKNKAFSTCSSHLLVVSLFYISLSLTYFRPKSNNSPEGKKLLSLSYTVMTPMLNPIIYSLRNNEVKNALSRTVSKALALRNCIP", "settings": "OR10A2, with or without the TAR-Tat system", "description": "(§1) Flp-In T-REx-293 cells stably expressing accessory proteins (RTP1S, Gαolf, and Ric8-b) were established using the Flp-In T-REx system. Accessory proteins-expressing cells were maintained in high-glucose Dulbecco’s modified Eagle medium (Sigma-Aldrich) containing 10% fetal bovine serum (Biowest) and 1% antibiotic–antimycotic (Nacalai tesque) at 37°C with 5% CO2.\n(§2) The GloSensor™ Technology (Promega) was used for the luciferase assay of the hOR response. As the negative control, cells that were transfected by the pBApo-CMV neo vector and pHEK293 Ultra Expression Vector I were used as mock cells. hOR/pHEK and hOR/pBApo (50 ng/well) were transfected into the accessory proteins-expressing cell line (40000 cells/well) using Lipofectamine 2000 (Thermo Fisher Scientific) (400 nL/well) along with pGlosensor™-22F cAMP biosensor plasmid (Promega) (50 ng/well) in a 96-well plate. At 28 h posttransfection, the cells were washed with an assay buffer (140 mM NaCl, 10 mM HEPES, 5 mM KCl, 1 mM CaCl2・2H2O, 10 mM D-glucose, pH 7.5) and replaced with the assay buffer (50 μL/well) containing 2% GloSensor cAMP substrate and preincubated for 1 h at 25°C. Then, the assay buffer was added (130 μL/well). After 10 min of equilibration, the luminescence was measured (L0). Odorants diluted in 10% DMSO/assay buffer were treated (20 μL/well). After 9 min, the luminescence was measured (L9min). First, all the L9min values were subtracted by the L0 value (ΔL) and divided by the L0 value (ΔL/L0). The concentration range of the odorants was different for each odorant, but the minimum was 0.01 μM and the maximum was 3 mM. For all hORs, luciferase assays with hOR/pBApo and hOR/pHEK were conducted in the same 96-well plate each time, and luminescence was normalized to a maximum value of 100. Dose–response curve images were graphed using the Graph Pad Prism 9 software (Graph Pad Software)."}, "[2]": {"molecular_target": "T2, OR2Z1 (Homo sapiens, UniProt Q8NG97)", "T2 construct": "Lucy tag (N); FLAG (N); Rho tag (N); expressed in transfected cells; host or cells: Flp-In T-REx-293 cells stably expressing RTP1S, Gαolf and Ric8-b", "T2 sequence (Q8NG97 1-314)": "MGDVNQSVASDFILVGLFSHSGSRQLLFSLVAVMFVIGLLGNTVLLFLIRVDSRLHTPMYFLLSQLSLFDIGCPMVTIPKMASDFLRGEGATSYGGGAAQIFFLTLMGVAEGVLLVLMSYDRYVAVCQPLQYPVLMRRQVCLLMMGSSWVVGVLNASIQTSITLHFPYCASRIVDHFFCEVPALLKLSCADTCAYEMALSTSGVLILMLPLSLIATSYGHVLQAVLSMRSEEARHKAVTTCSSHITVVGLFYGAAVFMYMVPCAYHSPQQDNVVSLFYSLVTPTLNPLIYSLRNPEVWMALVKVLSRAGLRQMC", "settings": "OR2Z1, with or without the TAR-Tat system", "description": "as §1, §2"}, "[3]": {"molecular_target": "T3, OR1A1 (Homo sapiens, UniProt Q9P1Q5)", "T3 construct": "Lucy tag (N); FLAG (N); Rho tag (N); expressed in transfected cells; host or cells: Flp-In T-REx-293 cells stably expressing RTP1S, Gαolf and Ric8-b", "T3 sequence (Q9P1Q5 1-309)": "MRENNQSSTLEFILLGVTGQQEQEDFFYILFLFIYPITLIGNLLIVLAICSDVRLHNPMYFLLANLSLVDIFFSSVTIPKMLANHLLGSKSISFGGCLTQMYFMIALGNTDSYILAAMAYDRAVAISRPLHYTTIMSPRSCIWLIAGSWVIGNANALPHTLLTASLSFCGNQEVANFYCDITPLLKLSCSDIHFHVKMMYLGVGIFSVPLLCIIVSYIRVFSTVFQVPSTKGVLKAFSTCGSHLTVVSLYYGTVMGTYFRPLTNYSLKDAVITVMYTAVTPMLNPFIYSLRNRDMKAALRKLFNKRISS", "description": "as §1, §2"}, "[4]": {"molecular_target": "T4, OR5M3 (Homo sapiens, UniProt Q8NGP4)", "T4 construct": "Lucy tag (N); FLAG (N); Rho tag (N); expressed in transfected cells; host or cells: Flp-In T-REx-293 cells stably expressing RTP1S, Gαolf and Ric8-b", "T4 sequence (Q8NGP4 1-307)": "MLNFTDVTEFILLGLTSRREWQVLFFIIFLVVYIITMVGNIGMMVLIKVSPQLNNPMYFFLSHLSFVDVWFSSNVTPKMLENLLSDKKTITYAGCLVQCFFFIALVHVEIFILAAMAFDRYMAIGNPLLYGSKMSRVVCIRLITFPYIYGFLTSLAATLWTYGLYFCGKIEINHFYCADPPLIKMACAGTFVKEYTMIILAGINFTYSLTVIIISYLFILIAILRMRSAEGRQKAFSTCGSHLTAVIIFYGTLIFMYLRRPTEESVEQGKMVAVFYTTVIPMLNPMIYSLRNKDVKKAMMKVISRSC", "settings": "OR5M3, with or without the TAR-Tat system", "description": "as §1, §2"}, "[5]": {"molecular_target": "T5, OR8B3 (Homo sapiens, UniProt Q8NGG8)", "T5 construct": "Lucy tag (N); FLAG (N); Rho tag (N); expressed in transfected cells; host or cells: Flp-In T-REx-293 cells stably expressing RTP1S, Gαolf and Ric8-b", "T5 sequence (Q8NGG8 1-313)": "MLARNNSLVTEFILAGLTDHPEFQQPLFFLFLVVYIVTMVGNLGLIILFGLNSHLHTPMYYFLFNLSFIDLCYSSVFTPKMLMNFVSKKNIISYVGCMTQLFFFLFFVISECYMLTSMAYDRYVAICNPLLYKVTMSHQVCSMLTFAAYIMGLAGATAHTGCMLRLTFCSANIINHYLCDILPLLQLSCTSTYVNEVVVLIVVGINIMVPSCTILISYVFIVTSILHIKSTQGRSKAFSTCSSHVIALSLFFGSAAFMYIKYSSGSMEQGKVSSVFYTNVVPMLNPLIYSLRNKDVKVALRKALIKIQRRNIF", "settings": "OR8B3, with or without the TAR-Tat system", "description": "as §1, §2"}},
  "data": [
    {"compound": "CCCCCC=O", "note": "[n-hexanal]", "values": [
      {"measurement": "concentration-dependent response to n-hexanal", "setting": "[1]", "result": "no concentration-dependent response"},
      {"measurement": "concentration-dependent response to n-hexanal", "setting": "[2]", "result": "no concentration-dependent response"},
      {"measurement": "concentration-dependent response to n-hexanal", "setting": "[3]; OR1A1, with and without the TAR-Tat system", "result": "concentration-dependent responses only with the TAR-Tat system"},
      {"measurement": "EC50", "setting": "[3]; OR1A1/pHEK (with TAR-Tat system), read-out: EC50 of n-hexanal concentration-response relationship", "result": 995, "unit": "µM"},
      {"measurement": "concentration-dependent response to n-hexanal", "setting": "[4]", "result": "no concentration-dependent response"},
      {"measurement": "concentration-dependent response to n-hexanal", "setting": "[5]", "result": "no concentration-dependent response"}
    ]}
  ]
}
